Measured values: patent publication CN111517978A, “环己烯基-dl-天门冬氨酸衍生物及其制备方法、组合物与用途” (Zhongshan Wanhan Pharmaceutical Co ltd, priority 2020, dated 2020)

Tests used:
Type in all cases: cell-based
Settings in all cases: component A (XP or YS) alone
[1] = system: Bacteroides fragilis ATCC25285 (脆弱拟杆菌ATCC25285); assay: Antibacterial action (MIC, FICI) against Bacteroides fragilis ATCC25285 (Table 26)
[2] = system: Klebsiella pneumoniae NCTC 9632 (肺炎克雷伯菌NCTC 9632); assay: Antibacterial action (MIC, FICI) against Klebsiella pneumoniae NCTC 9632 (Table 9)
[3] = system: Serratia marcescens IFO 3736 (黏质沙雷氏菌IFO 3736); assay: Antibacterial action (MIC, FICI) against Serratia marcescens IFO 3736 (Table 10)
[4] = system: Propionibacterium acnes ATCC11828 (痤疮丙酸杆菌ATCC11828); assay: Antibacterial action (MIC, FICI) against Propionibacterium acnes ATCC11828 (Table 21)
[5] = system: Shigella flexneri 2aEW-10 (福氏志贺氏菌2aEW-10); assay: Antibacterial action (MIC, FICI) against Shigella flexneri 2aEW-10 (Table 15)
[6] = system: Streptococcus intermedius ATCC27335 (中间链球菌ATCC27335); assay: Antibacterial action (MIC, FICI) against Streptococcus intermedius ATCC27335 (Table 20)
[7] = system: Providencia stuartii 57 (斯氏普罗威登斯菌57); assay: Antibacterial action (MIC, FICI) against Providencia stuartii 57 (Table 12)
[8] = system: Micrococcus lysodeikticus 2665 (溶壁微球菌2665); assay: Antibacterial action (MIC, FICI) against Micrococcus lysodeikticus 2665 (Table 4)
[9] = system: Stenotrophomonas maltophilia NCTC 13637 (嗜麦芽窄食单胞菌NCTC 13637); assay: Antibacterial action (MIC, FICI) against Stenotrophomonas maltophilia NCTC 13637 (Table 18)
[10] = system: Escherichia coli ATCC25922 (大肠杆菌ATCC25922); assay: Antibacterial action (MIC, FICI) against Escherichia coli ATCC25922 (Table 7)
[11] = system: Clostridium perfringens ATCC13124 (产气荚膜梭状芽孢杆菌ATCC13124)

`CCC(CC)O[C@@H]1C=C(C(=O)OC)C[C@H](NC(CC(=O)O)C(=O)O)[C@H]1NC(C)=O` (mixture of isomers) [化合物3P, ((1S,5R,6R)-6-乙酰氨基-3-(甲氧基羰基)-5-(戊-3-基氧基)环己-3-烯-1-基)-DL-天门冬氨酸] gave an MIC_A [1] of 11 ng/mL, an MIC_A [2] of 22 ng/mL and an MIC_A [3] of 11 ng/mL.
Compound `CCOC(=O)C1=C[C@@H](OC(CC)CC)[C@@H](NC(C)=O)[C@H](NC(CC(=O)O)C(=O)O)C1` (mixture of isomers) [化合物5P, ((1R,5R,6S)-6-乙酰氨基-3-(乙氧基羰基)-5-(戊-3-基氧基)环己-3-烯-1-基)-DL-天门冬氨酸] has an MIC_A [4] of 15 ng/mL, an MIC_A [1] of 20 ng/mL and an MIC_A [2] of 17 ng/mL. For the same compound, the MIC_A [5] was 24 ng/mL.
`CCOC(=O)C1=C[C@@H](OC(CC)CC)[C@H](NC(C)=O)[C@H](NC(CC(=O)O)C(=O)O)C1` (mixture of isomers) [化合物9P, ((1R,5R,6R)-6-乙酰氨基-3-(乙氧基羰基)-5-(戊-3-基氧基)环己-3-烯-1-基)-DL-天门冬氨酸] showed an MIC_A [1] of 16 ng/mL, an MIC_A [6] of 9 ng/mL and an MIC_A [7] of 29 ng/mL. For the same compound, the MIC_A [8] was 18 ng/mL and the MIC_A [3] was 49 ng/mL.
Work on `CCC(CC)O[C@@H]1C=C(C(=O)O)C[C@H](NC(CC(=O)O)C(=O)O)[C@H]1NC(C)=O` (mixture of isomers) [化合物10P, ((1S,5R,6R)-6-乙酰氨基-3-羧基-5-(戊-3-基氧基)环己-3-烯-1-基)-DL-天门冬氨酸] yielded an MIC_A [4] of 35 ng/mL, an MIC_A [1] of 6 ng/mL and an MIC_A [5] of 25 ng/mL.
With `CC(=O)N[C@H]1[C@H](O)C=C(C(=O)O)C[C@@H]1NC(CC(=O)O)C(=O)O` (mixture of isomers) [化合物15P, ((1S,5R,6R)-6-乙酰氨基-3-羧基-5-羟基环己-3-烯-1-基)-DL-天门冬氨酸] the MIC_A [1] was 24 ng/mL, the MIC_A [9] was 24 ng/mL and the MIC_A [10] was 15 ng/mL. The MIC_A [11] was 47 ng/mL and the MIC_A [5] was 3 ng/mL.
In the case of `CCOC(=O)C1=C[C@H](OC(CC)CC)[C@@H](N)[C@H](NC(CC(=O)O)C(=O)O)C1` (mixture of isomers) [化合物17P, ((1R,5S,6S)-6-氨基-3-(乙氧基羰基)-5-(戊-3-基氧基)环己-3-烯-1-基)-DL-天门冬氨酸], the MIC_A [4] is reported as 27 ng/mL, the MIC_A [9] is reported as 16 ng/mL and the MIC_A [10] is reported as 22 ng/mL. The MIC_A [11] was 21 ng/mL and the MIC_A [5] was 30 ng/mL.
With `CCOC(=O)C1=C[C@H](OC(CC)CC)[C@H](NC(CC(=O)O)C(=O)O)[C@@H](NC(C)=O)C1` (mixture of isomers) [化合物18P, ((1R,2S,6S)-6-乙酰氨基-4-(乙氧基羰基)-2-(戊-3-基氧基)环己-3-烯-1-基)-DL-天门冬氨酸] the MIC_A [1] was 17 ng/mL, the MIC_A [6] was 27 ng/mL and the MIC_A [7] was 22 ng/mL. The MIC_A [8] was 6 ng/mL and the MIC_A [3] was 53 ng/mL.
In the case of `CCOC(=O)C1=C[C@@H](OC(CC)CC)[C@H](NC(CC(=O)O)C(=O)O)[C@@H](N=[N+]=[N-])C1` (mixture of isomers) [化合物21P, ((1R,2R,6S)-6-叠氮基-4-(乙氧基羰基)-2-(戊-3-基氧基)环己-3-烯-1-基)-DL-天门冬氨酸], the MIC_A [1] is reported as 13 ng/mL, the MIC_A [8] is reported as 13 ng/mL and the MIC_A [2] is reported as 15 ng/mL. The MIC_A [11] was 56 ng/mL and the MIC_A [5] was 17 ng/mL.
`CCOC(=O)C1=C[C@@H](OC(CC)CC)[C@H](NC(C)=O)[C@@H](N)C1` [化合物1S, 乙基(3R,4R,5S)-4-乙酰氨基-5-氨基-3-(戊-3-基氧基)环己-1-烯-1-羧酸酯] was tested, and the MIC_A [4] was 633 ng/mL, the MIC_A [7] was 1178 ng/mL and the MIC_A [8] was 300 ng/mL. The MIC_A [11] was 504 ng/mL.
`CCC(CC)O[C@@H]1C=C(C(=O)OC)C[C@H](N)[C@H]1NC(C)=O` [化合物3S, 甲基(3R,4R,5S)-4-乙酰氨基-5-氨基-3-(戊-3-基氧基)环己-1-烯-1-羧酸酯] showed an MIC_A [1] of 362 ng/mL, an MIC_A [2] of 424 ng/mL and an MIC_A [3] of 456 ng/mL.
With `CCOC(=O)C1=C[C@@H](OC(CC)CC)[C@@H](NC(C)=O)[C@H](N)C1` [化合物5S, 乙基(3R,4S,5R)-4-乙酰氨基-5-氨基-3-(戊-3-基氧基)环己-1-烯-1-羧酸酯] the MIC_A [4] was 919 ng/mL, the MIC_A [1] was 323 ng/mL and the MIC_A [2] was 507 ng/mL. The MIC_A [5] was 483 ng/mL.
In the case of `CCOC(=O)C1=C[C@@H](OC(CC)CC)[C@H](NC(C)=O)[C@H](N)C1` [化合物9S, 乙基(3R,4R,5R)-4-乙酰氨基-5-氨基-3-(戊-3-基氧基)环己-1-烯-1-羧酸酯], the MIC_A [1] is reported as 316 ng/mL, the MIC_A [6] is reported as 410 ng/mL and the MIC_A [7] is reported as 440 ng/mL. It also gave an MIC_A [8] of 462 ng/mL and an MIC_A [3] of 864 ng/mL.
With `CCC(CC)O[C@@H]1C=C(C(=O)O)C[C@H](N)[C@H]1NC(C)=O` [化合物10S, (3R,4R,5S)-4-乙酰氨基-5-氨基-3-(戊-3-基氧基)环己-1-烯-1-羧酸] the MIC_A [4] was 737 ng/mL, the MIC_A [1] was 484 ng/mL and the MIC_A [5] was 671 ng/mL.
With `CC(=O)N[C@H]1[C@H](O)C=C(C(=O)O)C[C@@H]1N` [化合物15S, (3R,4R,5S)-4-乙酰氨基-5-氨基-3-羟基环己-1-烯-1-羧酸] the MIC_A [1] was 730 ng/mL, the MIC_A [9] was 1138 ng/mL and the MIC_A [10] was 354 ng/mL. The MIC_A [11] was 681 ng/mL and the MIC_A [5] was 303 ng/mL.
`CCOC(=O)C1=C[C@H](OC(CC)CC)[C@@H](N)[C@H](N)C1` [化合物17S, 乙基(3S,4S,5R)-4,5-二氨基-3-(戊-3-基氧基)环己-1-烯-1-羧酸酯] gave an MIC_A [4] of 969 ng/mL, an MIC_A [9] of 447 ng/mL and an MIC_A [10] of 683 ng/mL. The MIC_A [11] was 684 ng/mL and the MIC_A [5] was 929 ng/mL.
For `CCOC(=O)C1=C[C@H](OC(CC)CC)[C@H](N)[C@@H](NC(C)=O)C1` [化合物18S, 乙基(3S,4R,5S)-5-乙酰氨基-4-氨基-3-(戊-3-基氧基)环己-1-烯-1-羧酸酯], the MIC_A [1] was 305 ng/mL, the MIC_A [6] was 1137 ng/mL and the MIC_A [7] was 959 ng/mL. The MIC_A [8] was 418 ng/mL and the MIC_A [3] was 992 ng/mL.
Compound `CCOC(=O)C1=C[C@@H](OC(CC)CC)[C@H](N)[C@@H](N=[N+]=[N-])C1` [化合物21S, 乙基(3R,4R,5S)-4-氨基-5-叠氮基-3-(戊-3-基氧基)环己-1-烯-1-羧酸酯] has an MIC_A [1] of 375 ng/mL, an MIC_A [8] of 407 ng/mL and an MIC_A [2] of 613 ng/mL. For the same compound, the MIC_A [11] was 884 ng/mL and the MIC_A [5] was 533 ng/mL.
